Results reported in US12617762B2, “Carboxy derivatives with antiinflamatory properties” (Sitryx Therapeutics Limited, priority 2019, dated 2026).
Like-named read-outs stand apart in the source and are kept apart here.

Legend:
[1] = system: IL-1β cytokine output from THP-1s; assay: THP-1 AlphaLISA IL-1β cytokine inhibition assay; type: cell-based; settings: for IC50: LPS then nigericin; for IL-1β lowering, result in words: THP-1 IL-1β assay
Description: Measuring Inhibitory Effects on IL-1β Cytokine Output from THP-1s
The cytokine inhibition profiles of compounds of formula (I) were determined in a differentiated THP-1 cell assay. All assays were performed in RPMI-1640 growth medium (Gibco), supplemented with 10% fetal bovine serum (FBS; Gibco), 1% penicillin-streptomycin and 1% sodium pyruvate unless specified otherwise. The IL-1β cytokine inhibition assay was run in a background of differentiated THP-1 cells as described below. All reagents described were from Sigma-Aldrich unless specified otherwise. Compounds were prepared as 10 mM DMSO stocks.
THP-1 cells were expanded as a suspension up to 80% confluence in appropriate growth medium. Cells were harvested, suspended, and treated with an appropriate concentration of phorbol 12-myristate 13-acetate (PMA) over a 72 hr period (37° C./5% CO2).
Following 72 hrs of THP-1 cell incubation, cellular medium was removed and replaced with fresh growth media containing 1% of FBS. Working concentrations of compounds were prepared separately in 10% FBS treated growth medium and pre-incubated with the cells for 30 minutes (37° C./5% CO2). Following the 30 minute compound pre-incubation, THP-1s were treated with an appropriate concentration of LPS and the cells were subsequently incubated for a 24 hr period (37° C./5% CO2). An appropriate final concentration of Nigericin was then dispensed into the THP-1 plates and incubated for 1 hour (37° C./5% CO2) before THP-1 supernatants were harvested and collected in separate polypropylene 96-well holding plates.
Reagents from an IL-1β and IL-6 commercial kit (Perkin Elmer) were prepared and run according to the manufacturer's instructions. Subsequently, fluorescence signal detection in a microplate reader was measured (EnVision® Multilabel Reader, Perkin Elmer).
Percentage inhibition was calculated per cytokine by normalising the sample data to the high and low controls used within each plate (+/− LPS respectively).

[2] = Hepatocyte stability assay, mouse; type: in vitro ADME; settings: mouse, hepatocytes; for hepatocyte CLint at 10 μM: Hepatocyte stability Clint; for half-life at 10 μM: Hepatocyte stability T½
Text: (§1) Defrosted cryo-preserved hepatocytes (viability >70%) were used to determine the metabolic stability of a compound via calculation of intrinsic clearance (CIint; a measure of the removal of a compound from the liver in the absence of blood flow and cell binding). Clearance data are particularly important for in vitro work as they can be used in combination with in vivo data to predict the half-life and oral bioavailability of a drug.
(§2) The metabolic stability in hepatocytes assay involves a time-dependent reaction using both positive and negative controls. The cells were pre-incubated at 37° C. then spiked with test compound (and positive control); samples were taken at pre-determined time intervals and were analysed to monitor the change in concentration of the initial drug compound over 60 minutes. A buffer incubation reaction (with no hepatocytes present) acted as a negative control and two cocktail solutions, containing compounds with known high and low clearance values (verapamil/7-hydroxycoumarin and propranolol/diltiazem), acted as positive controls. • 1. The assay was run with a cell concentration of 0.5×10^6 cells/mL in Leibovitz buffer. • 2. All compounds and controls were run in duplicate. • 3. Compound concentration was 10 μM. • 4. All compounds and controls were incubated with both cells and buffer to show turnover was due to hepatic metabolism. • 5. All wells on the incubation plate had 326.7 μL of either cells or buffer added. • 6. Prior to assay, cell and buffer-only incubation plates were preincubated for 10 mins at 37° C. • 7. The assay was initiated by adding compounds, 3.3 μL of 1 mM in 10% DMSO—90% Buffer; final DMSO concentration was 0.1%. • 8. Samples were taken at regular timepoints (0, 5, 10, 20, 40, 60 min) until 60 mins. • 9. Sample volume was 40 μL and was added to 160 μL of crash solvent (acetonitrile with internal standard) and stored on ice. • 10. At the end of the assay, the crash plates were centrifuged at 3500 rpm for 20 mins at 4° C. • 11. 80 μL of clear supernatant was removed and mixed with 80 μL of deionised water before being analysed by LC-MS/MS.
(§3) Raw LC-MS/MS data was exported to, and analysed in, Microsoft Excel for determination of intrinsic clearance. The percentage remaining of a compound was monitored using the peak area of the initial concentration as 100%. Intrinsic clearance and half-life values were calculated using a graph of the natural log of percentage remaining versus the time of reaction in minutes.

[3] = Hepatocyte stability assay, human; type: in vitro ADME; settings: human, hepatocytes; for hepatocyte CLint at 10 μM: Hepatocyte stability Clint; for half-life at 10 μM: Hepatocyte stability T½
Text: as §1, §2, §3

[4] = system: NRF2 (nuclear factor erythroid 2-related factor 2); assay: NRF2 +/-GSH activation assay (DiscoverX PathHunter NRF2 translocation kit, U2OS cells); type: cell-based; settings: for NRF2 activation +GSH Emax / NRF2 activation −GSH Emax: normalised to DMF high control
Description: Measuring Compound Activation Effects on the Anti-Inflammatory Transcription Factor NRF2 in DiscoverX PathHunter NRF2 Translocation Kit
Potency and efficacy of compounds of formula (I) against the target of interest to activate NRF2 (nuclear factor erythroid 2-related factor 2) were determined using the PathHunter NRF2 translocation kit (DiscoverX). The NRF2 translocation assay was run using an engineered recombinant cell line, utilising enzyme fragment complementation to determine activation of the Keap1-NRF2 protein complex and subsequent translocation of NRF2 into the nucleus. Enzyme activity was quantified using a chemiluminescent substrate consumed following the formation of a functional enzyme upon PK-tagged NRF2 translocation into the nucleus.
The assay was run under both +/−GSH (glutathione) conditions to determine the sensitivity of the compounds' NRF2-activating abilities to attenuation by GSH.
Additionally, a defined concentration of DMF was used as the ‘High’ control to normalise test compound activation responses to.
U2OS PathHunter eXpress cells were thawed from frozen prior to plating. Following plating, U2OS cells were incubated for 24 hrs (37° C./5% CO2) in commercial kit provided cell medium.
Following 24 hrs of U2OS incubation, cells were directly treated with an appropriate final concentration of compound, for −GSH conditions or, for +GSH conditions, an intermediate plate containing 6× working concentrations of compound stocks was prepared in a 6 mM working concentration of GSH solution (solubilised in sterile PBS). Following a 30 minute compound-GSH pre-incubation (37° C./5% CO2) for +GSH treatment, plated U2OS cells were incubated with an appropriate final concentration of compound and GSH.
Following compound (+/−GSH) treatment, the U2OS plates were incubated for a further 6 hours (37° C./5% CO2) before detection reagent from the PathHunter NRF2 commercial kit was prepared and added to test plates according to the manufacturer's instructions. Subsequently, the luminescence signal detection was measured in a microplate reader (PHERAstar®, BMG Labtech).
Percentage activation was calculated by normalising the sample data to the high and low controls used within each plate (+/−DMF).

[5] = Homo sapiens, THP-1, differentiated THP-1 cells
[6] = +GSH, 30 minute compound-GSH pre-incubation, read-out: NRF2 activation +GSH EC50
[7] = −GSH, U2OS PathHunter cells, 6 hours compound treatment, read-out: NRF2 activation −GSH EC50

hepatocyte CLint at 10 μM [2] [µL/min/1e6 cells]	half-life at 10 μM [2] [min]	hepatocyte CLint at 10 μM [3] [µL/min/1e6 cells]	half-life at 10 μM [3] [min]	Compound	IC50 [1, 5] [µM]	EC50 [4, 6] [µM]	NRF2 activation +GSH Emax ([4]; +GSH) [%]	EC50 [4, 7] [µM]	NRF2 activation −GSH Emax ([4]; −GSH) [%]	IL-1β lowering, result in words [1]	IC50 ([1]; differentiated THP-1 cells) [µM]
105	19	53	23	C=C(Cc1nc(C(F)(F)c2ccc(C)c(Cl)c2)no1)C(=O)O [Example 151, 2-((3-((3-chloro-4-methylphenyl)difluoromethyl)-1,2,4-oxadiazol-5-yl)methyl)acrylic acid]	22.7	–	–	–	–	–	–
478	3	245	6	C=C(Cc1nc(Cc2ccc(CCCC)cc2)co1)C(=O)O [Example 127, 2-((4-(4-butylbenzyl)oxazol-2-yl)methyl)acrylic acid]	14.6	–	–	–	–	–	–
–	–	–	–	C=C(Cc1nc(-c2ccc(OCCC)c(Cl)c2)no1)C(=O)O [Example 130, 2-((3-(3-chloro-4-propoxyphenyl)-1,2,4-oxadiazol-5-yl)methyl)acrylic acid]	> 100	37.4	129	36.5	177	–	–
–	–	–	–	C=C(Cc1nc(C23CC4CC(CC(C4)C2)C3)no1)C(=O)O [Example 66, 2-((3-(adamantan-1-yl)-1,2,4-oxadiazol-5-yl)methyl)acrylic acid]	> 100	> 100	14	> 100	23	not effective	–
–	–	–	–	C=C(Cc1nc(CCCc2ccc(Cl)cc2)no1)C(=O)O [Example 33, 2-((3-(3-(4-chlorophenyl)propyl)-1,2,4-oxadiazol-5-yl)methyl)acrylic acid]	83.5	23.3	160	18.3	150	–	–
–	–	–	–	C=C(Cc1nc(Cc2ccc(OC)c(Cl)c2)no1)C(=O)O [Example 163, 2-((3-(3-chloro-4-methoxybenzyl)-1,2,4-oxadiazol-5-yl)methyl)acrylic acid]	> 100	> 100	−10	61.4	61	–	–
–	–	–	–	C=C(Cc1noc(-c2ccc(OCCCC)cc2)n1)C(=O)O [Example 96, 2-((5-(4-butoxyphenyl)-1,2,4-oxadiazol-3-yl)methyl)acrylic acid]	> 31.6	12.4	115	11.7	170	–	–
–	–	–	–	C=C(Cc1nc(CCCCCCC(F)(F)CF)no1)C(=O)O [Example 47, 2-((3-(7,7,8-trifluorooctyl)-1,2,4-oxadiazol-5-yl)methyl)acrylic acid]	> 100	47.1	86	41.4	131	not effective	–
–	–	–	–	C=C(Cc1nc(-c2ccc(OC(C)CC)cc2)no1)C(=O)O (stereo in doubt) [Example 145, (S)-2-((3-(4-(sec-butoxy)phenyl)-1,2,4-oxadiazol-5-yl)methyl)acrylic acid]	–	31.4	135	28.4	170	–	35.6
–	–	–	–	C=C(Cc1nc(-c2ccc(OC3CCCC3)cc2)no1)C(=O)O [Example 143, 2-((3-(4-cyclopentyloxyphenyl)-1,2,4-oxadiazol-5-yl)methyl)acrylic acid]	22.1	14.5	195	12	243	–	–
–	–	–	–	C=C(Cc1nc(C(F)(F)c2ccc(F)cc2)no1)C(=O)O [Example 125, 2-((3-(difluoro(4-fluorophenyl)methyl)-1,2,4-oxadiazol-5-yl)methyl)acrylic acid]	> 100	> 100	26	> 100	37	–	–
–	–	–	–	C=C(Cc1nc(CCCC)c(CCCC)o1)C(=O)O [Example 123, 2-((4,5-dibutyloxazol-2-yl)methyl)acrylic acid]	> 100	62.4	42	6.6	111	–	–
–	–	–	–	C=C(Cc1nc(-c2ccc(SC(F)(F)F)cc2)no1)C(=O)O [Example 158, 2-((3-(4-((trifluoromethyl)thio)phenyl)-1,2,4-oxadiazol-5-yl)methyl)acrylic acid]	> 31.6	2.9	196	2.6	189	–	–
–	–	–	–	C=C(Cc1nc(-c2ccc(OCCCOC)cc2)no1)C(=O)O [Example 159, 2-((3-(4-(3-methoxypropoxy)phenyl)-1,2,4-oxadiazol-5-yl)methyl)acrylic acid]	> 100	39.9	85	34.4	87	–	–
–	–	–	–	C=C(Cc1nc(Cc2cccc(CCCC)c2)no1)C(=O)O [Example 29, 2-((3-(3-butylbenzyl)-1,2,4-oxadiazol-5-yl)methyl)acrylic acid]	22.8	11.2	183	7.6	179	–	–
–	–	–	–	C=C(Cc1nc(-c2ccc(O[C@H](C)CC)cc2)no1)C(=O)O [Example 144, (R)-2-((3-(4-(sec-butoxy)phenyl)-1,2,4-oxadiazol-5-yl)methyl)acrylic acid]	–	31.1	139	28.4	167	–	> 100
